Laboratory results published in patent publication US9114126B2, “Na/K-ATPase ligands, ouabain antagonists, assays and uses thereof” (The University of Toledo, priority 2009, dated 2015).
“Also recorded” adds a separate entry of the source.

Tests used:
purified Na/K-ATPase [1] = biological target: T1, purified Na/K-ATPase (Sus scrofa (Pig), UniProt P05024); assay: Na/K-ATPase activity, 96-well high throughput screen assay (released phosphate, BIOMOL GREEN); format: biochemical; conditions: for effect of changes in K+ concentration on compound-induced inhibition of Na/K-ATPase: data not shown
Description: The purified Na/K-ATPase was prepared from pig kidney. The specific activities of Na/K-ATPase of various kidney preparations were in the range of 900-1,200 μmol/mg/h, which were greater than 95% of the total ATPase activity. The high throughput screen is conducted in a 96-well format with the final reaction volume of 100 μl containing the following components: 100 mM NaCl, 20 mM KCl, 1 mM MgCl2, 1 mM EGTA, 20 mM Tris-HCl (pH 7.4) and 0.2 μg of purified Na/K-ATPase. After compounds were added, mixtures were incubated for 15 min at 37° C. for 15 min and reaction was initiated by adding 2 mM ATP.Mg mixture.
Reactions were carried out for 15 min and then stopped by the addition of 100 μl ice-cold trichloroacetic acid. Reaction mixtures were cleared by centrifugation, and assayed for released phosphate using the BIOMOL GREEN™ Reagent according to the manufacturer's instructions. In addition, the control Na/K-ATPase activity was measured in the presence and absence of 1 mM ouabain, and taken as 100%. Furthermore, 5 μM ouabain and 0.1% of DMSO were included in each plate as a positive and a vehicle control, respectively.

ERKs in LLC-PK1 cells = assay: p-ERK immunostaining in LLC-PK1 cells; format: cell-based, pig; conditions: for cellular ERK activity (active ERKs by immunostaining): LLC-PK1, 10 min, 100 nM ouabain, MB7 from 100 nM to 10 μM
Description: FIG. 4B: LLC-PK1 cells were treated with MB7 or ouabain for 10 minutes and were immunostained with the ERK/MAPK (Phospho-Thr202/Tyr204) Phosphorylation/Translocation Cell-Based Assay Kit according to the manufacturer's instructions. The images were collected as described under “Experimental Procedures.” The scale bar represents […]. Images from a representative experiment are shown. The quantitative data of p-ERK were collected from 40 different fields in three independent experiments and expressed as mean±S.E. *, p<0.05 versus control.
LLC-PK1 cells grown on coverslips were serum starved for 24 h and treated with MB7 or ouabain for different times Immunostaining of p-ERK was performed using the commercial available ERK/MAPK (Phospho-Thr202/Tyr204) Phosphorylation/Translocation Cell-Based Assay Kit according to the manufacturer's instructions. The signals were detected by a Leica confocal microscope. Leica confocal software was used for data analysis.
(§1) LLC-PK1 cells grown on coverslips were serum starved for 24 h and treated with MB5 or ouabain for different times Immunostaining of p-ERK was performed using the commercial available ERK/MAPK (Phospho-Thr202/Tyr204) Phosphorylation/Translocation Cell-Based Assay Kit according to the manufacturer's instructions. The signals were detected by a Leica confocal microscope. Leica confocal software was used for data analysis.

Na-ATPase = Na-ATPase (Sus scrofa (Pig), UniProt P05024); assay: Na-ATPase activity inhibition; format: biochemical
Description: In the experiments depicted in FIG. 1A, the dose-response curves of MB7 were compared with ouabain. […] Furthermore, 10 μM MB7 produced 58±6% inhibition of Na-ATPase as did on Na/K-ATPase.

Src in A549 cells = assay: Src activation in A549 cells (Western blot); format: cell-based, human; conditions: 10 min; 100 nM ouabain, MB7 up to 10 μM
Description: FIG. 4A: Effects of MB7 and ouabain on Src and ERKs. A549 cells were treated with ouabain or MB7 for 10 min and cell lysates (50 μg/lane) were separated by SDS-PAGE and analyzed for Src activation as in FIG. 3. The values are mean±S.E. from four separate experiments. *, p<0.05 versus control.
The pig kidney epithelia cells (LLC-PK1 cells) and human lung cancer cells (A549 cells) were obtained from ATCC and maintained in Dulbecco's modified Eagle's medium (DMEM) in the presence of 10% FBS, 100 units/ml penicillin, and 100 μg/ml streptomycin in a 5% CO2 humidified incubator. To eliminate the confounding effect of growth factors in the serum, cells were serum starved for 24 h before experiments unless otherwise indicated.
Cells were washed with PBS and solubilized in ice-cold RIPA buffer containing 1% Nonidet P-40, 1% sodium deoxycholate, 150 mM NaCl, 1 mM EDTA, 1 mM phenylmethylsulfonyl fluoride, 1 mM sodium orthovanadate, 1 mM NaF, 10 μg/ml aprotinin, 10 μg/ml leupeptin, and 50 mM Tris-HCl (pH 7.4) as previously described (13). Cell lysates were then cleared by centrifugation at 14,000 rpm, and supernatants were used for protein assay and subjected to Western blot analysis. Samples were separated on SDS-PAGE (50 μg/lane) and transferred to a cellulose membrane. […] Protein signals were detected using an ECL kit and quantified using a Bio-Rad GS-670 imaging densitometer.

Na/K-ATPase/Src complex = Na/K-ATPase/Src complex (Sus scrofa (Pig), UniProt P05024); assay: Activation of receptor Na/K-ATPase/Src complex (pY418 Western blot); format: biochemical; conditions: reconstituted complex in test tube; ouabain 10 μM, MB7 1 and 10 μM
Description: FIG. 3: Effects of MB7 and ouabain on receptor Na/K-ATPase/Src complex. The purified Na/K-ATPase (2 μg) and purified Src were incubated in the presence of either 10 μM ouabain or 1 and 10 μM MB7 for 15 min and assayed for Src activation as described in “Experimental Procedures”. Values are mean SE of at least three independent experiments. **p<0.01 compared with control.
The activity of receptor Na/K-ATPase/Src complex was assayed. Briefly, the purified Src (4.5 U) was incubated with 2 μg of the purified Na/K-ATPase in phosphate-buffered saline (PBS) for 30 min at 37° C. Afterward, the Na/K-ATPase/Src complex was exposed to ouabain or MB7 for 10 min. Reaction was initiated by addition of 2 mM ATP/Mg^2+, continued for 5 min at 37° C. and was stopped by addition of SDS sample buffer. The activation of Src was measured by Western blot using anti-pY418 antibody. Total Src was also probed for loading control.

[2] = test system: ouabain-induced ERK activation in LLC-PK1 cells; assay: Ouabain-induced activation of ERKs in LLC-PK1 cells after MB5 pretreatment; format: cell-based, pig; conditions: 15 min pretreatment, ouabain 1 nM and 100 nM
Description: FIG. 9B: Effects of MB5 on ouabain-induced activation of ERKs. LLC-PK1 cells were pretreated with different concentrations of MB5 (1 nM, 10 μM) for 15 min, exposed to 1 nM ouabain for 10 min, and assayed for active ERKs as in FIG. 9A. A representative set of images is shown.
FIG. 9C: Effects of MB5 on ouabain-induced activation of ERKs. LLC-PK1 cells were pretreated with different concentrations of MB5 (1 nM, 10 μM) for 15 min, exposed to 100 nM ouabain for 10 min, and assayed for active ERKs as in FIG. 9A. A representative set of images is shown.
FIG. 9D: Effects of MB5 on ouabain-induced activation of ERKs. LLC-PK1 cells were pretreated with different concentrations of MB5 (1 nM, 10 μM) for 15 min, exposed to 1 nM ouabain for 1 hour, and assayed for active ERKs as in FIG. 9A. A representative set of images is shown.
as §1
Ouabain stimulates protein kinase cascades via a Src-dependent pathway in LLC-PK1 cells. […]

purified Na/K-ATPase [3] = biological target: T1, purified Na/K-ATPase; assay: 3H-ouabain binding to the purified Na/K-ATPase; conditions: 20 nM 3H ouabain
Description: FIG. 8: Effects of MB5 on ouabain binding to the purified Na/K-ATPase. The purified Na/K-ATPase (2 μg) was incubated with 20 nM ^3H ouabain in the presence of different concentrations of MB5.

[4] = test system: EGF or dopamine-induced ERK activation in LLC-PK1 cells; assay: EGF- or dopamine-induced activation of ERKs in LLC-PK1 cells after MB5 pretreatment; format: cell-based, pig; conditions: MB5 1 nM, 10 μM, 15 min pretreatment
Description: FIG. 9E: Effects of MB5 on stimuli-induced activation of ERKs. LLC-PK1 cells were pretreated with different concentrations of MB5 (1 nM, 10 μM) for 15 min, exposed to epidermal growth factor (EGF) or Dopamine stimuli for either 10 or 3 min, and assayed for active ERKs as in FIG. 9A. A representative set of images is shown.
as §1
Ouabain stimulates protein kinase cascades via a Src-dependent pathway in LLC-PK1 cells. To determine whether MB5 can antagonize ouabain-induced signal transduction, treated LLC-PK1 cells were pre-treated with different concentrations of MB5 for 15 min and then exposed to ouabain or other stimuli.

purified Na/K-ATPase [5] = biological target: T1, purified Na/K-ATPase; assay: Na/K-ATPase activity assay (Example II), two-phase inhibition; format: biochemical
Description: FIGS. 7A-7C: Dose-dependent inhibition of Na/K-ATPase by MB5: FIG. 7A: The two phase inhibition of both low and high affinity.
The purified Na/K-ATPase was prepared from pig kidney. The specific activities of Na/K-ATPase of various kidney preparations were in the range of 900-1,200 μmol/mg/h, which were greater than 95% of the total ATPase activity. The Na/K-ATPase assay was conducted in the following reaction buffer with the final volume of 500 μl: 100 mM NaCl, 20 mM KCl, 1 mM MgCl2, 1 mM EGTA, 20 mM Tris-HCl (pH 7.4) and 1 μg of purified Na/K-ATPase. After compounds were added, mixtures were incubated for 15 min at 37° C. for 15 min and reaction was initiated by adding 2 mM ATP.Mg mixture. Reactions were carried out for 15 min and then stopped by the addition of 300 μl ice-cold trichloroacetic acid. Reaction mixtures were cleared by centrifugation, and assayed for released phosphate using the BIOMOL GREEN™ Reagent according to the manufacturer's instructions.

[6] = inhibition of purified pig kidney Na/K-ATPase, Table II, read-out: IC50

## O=c1c2ccc(O)c(O)c2oc2c(O)c(O)ccc12 [MB7, 3,4,5,6-Tetrahydroxyxanthone]
Purified Na/K-ATPase [1]; MB7 at 10 μM, substrate dependence, FIG. 2A-2B
  effect on Na+ and ATP affinities of Na/K-ATPase: reduced both Na^+ and ATP affinities
Purified Na/K-ATPase [1]
  effect of changes in K+ concentration on compound-induced inhibition of Na/K-ATPase: no effect
Purified Na/K-ATPase [1]; dose-dependent inhibition of Na/K-ATPase, FIG. 1A, read-out: apparent IC50
  IC50: 5 µM
Purified Na/K-ATPase [1]; [6]
  IC50: 5 µM
ERKs in LLC-PK1 cells
  cellular ERK activity (active ERKs by immunostaining): failed to affect cellular ERK activity
Na-ATPase
  inhibition at 10 µM: 58 ± 6%
Src in A549 cells
  Src activation in A549 cells: failed to do the same
Na/K-ATPase/Src complex
  activation of Na/K-ATPase-associated Src: failed to activate Src

## COc1ccc2oc3cc(OC)c(OC)c(OC)c3c(=O)c2c1 [C-017]
Purified Na/K-ATPase [1]; [6]
  IC50: > 100 µM

## COc1ccc2c(=O)c3ccc(OC)c(OC)c3oc2c1 [MB8]
Purified Na/K-ATPase [1]; [6]
  IC50: > 100 µM

## O=c1c2cccc(O)c2oc2cc(O)cc(O)c12 [MB3, 1,3,5-Trihydroxyxanthone]
Purified Na/K-ATPase [1]; [6]
  IC50: 65 µM

## COc1cc(O)c2c(=O)c3c(O)c(OC)ccc3oc2c1 [2027BA2]
Purified Na/K-ATPase [1]; [6]
  IC50: > 100 µM

## COc1cc(O)c2c(=O)c3c(OC)c(O)ccc3oc2c1 [2027BA1]
Purified Na/K-ATPase [1]; [6]
  IC50: > 100 µM

## O=c1c2ccccc2oc2c(O)c(O)ccc12 [MB2, 3,4-Dihydroxyxanthone]
Purified Na/K-ATPase [1]; [6]
  IC50: > 100 µM

## O=c1c2ccccc2oc2cc(O)cc(O)c12 [MB1, 1,3-Dihydroxyxanthone]
Purified Na/K-ATPase [1]; [6]
  IC50: > 100 µM

## O=c1c2ccccc2oc2ccccc12 [xanthone, reference compound]
Purified Na/K-ATPase [1]; dose-response curves
  inhibition of Na/K-ATPase activity: failed to inhibit; also recorded: no detectable inhibition

## O=c1c2cccc(O)c2oc2c(O)c(O)ccc12 [MB5, 3,4,5-Trihydroxyxanthone]
[2]; MB5 at 1 nM
  effect on ouabain-induced activation of ERKs: significantly reduce
[2]; MB5 at 10 μM
  effect on ouabain-induced activation of ERKs: completely blocked
Purified Na/K-ATPase [1]; [6]
  IC50: 10 µM
Purified Na/K-ATPase [3]
  concentration at which significant inhibition of ouabain binding was detected: 0.1 nM
Purified Na/K-ATPase [3]; 10 μM MB5
  maximal inhibition of ouabain binding: 30%
[4]
  effect on ERK activation induced by EGF or dopamine: failed to affect ERK activation
Purified Na/K-ATPase [5]; at about 50 μM, read-out: inhibition by low affinity binding
  inhibition at 50 µM: 100%
Purified Na/K-ATPase [5]; high affinity phase
  inhibition of the ATPase activity by high affinity inhibition: about 25%
Purified Na/K-ATPase [5]; high affinity site, sub-nM concentrations
  IC50: 0.04 nM

## O=c1c2ccc(O)c(O)c2oc2cc(O)cc(O)c12 [MB6, 1,3,5,6-Tetrahydroxyxanthone]
Purified Na/K-ATPase [1]; [6]
  IC50: 60 µM

## C[C@@H]1O[C@@H](O[C@H]2C[C@@H](O)[C@]3(CO)[C@H]4[C@H](O)C[C@]5(C)[C@@H](C6=CC(=O)OC6)CC[C@]5(O)[C@@H]4CC[C@]3(O)C2)[C@H](O)[C@H](O)[C@H]1O [ouabain]
Purified Na/K-ATPase [1]
  IC50: ~5 µM
  effect of changes in K+ concentration on compound-induced inhibition of Na/K-ATPase: antagonized
ERKs in LLC-PK1 cells
  cellular ERK activity (active ERKs by immunostaining): increased cellular amount of active ERKs
ERKs in LLC-PK1 cells; LLC-PK1, ouabain 1 nM and 100 nM, time and concentration-dependent
  ERK stimulation: stimulated ERKs
Src in A549 cells
  Src activation in A549 cells: stimulated Src
Na/K-ATPase/Src complex
  activation of Na/K-ATPase-associated Src: stimulated
